# Measured values from ChEMBL document CHEMBL2440076, “New triarylpyrazoles as broad-spectrum anticancer agents: design, synthesis, and biological evaluation” (Eur J Med Chem, 2013).
# Experiments:
# KM12 = assay: Growth inhibition of human KM12 cells assessed as cell growth at 10 uM after 48 hrs by sulforhodamine B assay; format: functional; conditions: KM12, 48 h, read-out: Activity
# MDA-MB-231 = assay: Growth inhibition of human MDA-MB-231 cells after 48 hrs by sulforhodamine B assay; format: functional; conditions: MDA-MB-231, 48 h
# T47D [1] = assay: Growth inhibition of human T47D cells after 48 hrs by sulforhodamine B assay; format: functional; conditions: for CC50: read-out: LC50 (the source's name)
# NCI-H23 = assay: Growth inhibition of human NCI-H23 cells after 48 hrs by sulforhodamine B assay; format: functional; conditions: NCI-H23, 48 h
# TK-10 = assay: Growth inhibition of human TK10 cells assessed as cell growth at 10 uM after 48 hrs by sulforhodamine B assay; format: functional; conditions: TK-10, 48 h, read-out: Activity
# BT-549 [2] = assay: Growth inhibition of human BT549 cells assessed as cell growth at 10 uM after 48 hrs by sulforhodamine B assay; format: functional; conditions: BT-549, 48 h, read-out: Activity
# T47D [3] = assay: Growth inhibition of human T47D cells assessed as cell growth at 10 uM after 48 hrs by sulforhodamine B assay; format: functional; conditions: read-out: Activity
# OVCAR-4 = assay: Growth inhibition of human OVCAR4 cells assessed as cell growth at 10 uM after 48 hrs by sulforhodamine B assay; format: functional; conditions: OVCAR-4, 48 h, read-out: Activity
# SNB-19 = assay: Growth inhibition of human SNB19 cells after 48 hrs by sulforhodamine B assay; format: functional; conditions: SNB-19, 48 h
# HOP-62 = assay: Growth inhibition of human HOP62 cells assessed as cell growth at 10 uM after 48 hrs by sulforhodamine B assay; format: functional; conditions: HOP-62, 48 h, read-out: Activity
# SK-OV-3 = assay: Growth inhibition of human SKOV3 cells assessed as cell growth at 10 uM after 48 hrs by sulforhodamine B assay; format: functional; conditions: SK-OV-3, 48 h, read-out: Activity
# SK-MEL-28 = assay: Growth inhibition of human SK-MEL-28 cells after 48 hrs by sulforhodamine B assay; format: functional; conditions: SK-MEL-28, 48 h
# MDA-MB-468 = assay: Growth inhibition of human MDA-MB-468 cells assessed as cell growth at 10 uM after 48 hrs by sulforhodamine B assay; format: functional; conditions: MDA-MB-468, 48 h, read-out: Activity
# RPMI-8226 = assay: Growth inhibition of human RPMI8226 cells assessed as cell growth at 10 uM after 48 hrs by sulforhodamine B assay; format: functional; conditions: RPMI-8226, 48 h, read-out: Activity
# SN12C = assay: Growth inhibition of human SN12C cells assessed as cell growth at 10 uM after 48 hrs by sulforhodamine B assay; format: functional; conditions: read-out: Activity
# HCT-15 = assay: Growth inhibition of human HCT15 cells assessed as cell growth at 10 uM after 48 hrs by sulforhodamine B assay; format: functional; conditions: HCT-15, 48 h, read-out: Activity
# PC-3 = assay: Growth inhibition of human PC3 cells assessed as cell growth at 10 uM after 48 hrs by sulforhodamine B assay; format: functional; conditions: PC-3, 48 h, read-out: Activity
# [4] = Growth inhibition of human HCC2998 cells assessed as cell growth at 10 uM after 48 hrs by sulforhodamine B assay; format: functional; conditions: HCC 2998, 48 h, read-out: Activity
# SK-MEL-5 = assay: Growth inhibition of human SK-MEL-5 cells assessed as cell growth at 10 uM after 48 hrs by sulforhodamine B assay; format: functional; conditions: SK-MEL-5, 48 h, read-out: Activity
# MDA-MB-435 = assay: Growth inhibition of human MDA-MB-435 cells after 48 hrs by sulforhodamine B assay; format: functional, cell-based; conditions: MDA-MB-435, 48 h
# [5] = Growth inhibition of human Hs 578T cells assessed as cell growth at 10 uM after 48 hrs by sulforhodamine B assay; format: functional; conditions: read-out: Activity
# BT-549 [6] = assay: Growth inhibition of human BT549 cells after 48 hrs by sulforhodamine B assay; format: functional; conditions: BT-549, 48 h
# CAKI-1 = assay: Growth inhibition of human CAKI-1 cells after 48 hrs by sulforhodamine B assay; format: functional; conditions: CAKI-1, 48 h; for CC50: read-out: LC50 (the source's name)
# NCI-H460 = assay: Growth inhibition of human NCI-H460 cells assessed as cell growth at 10 uM after 48 hrs by sulforhodamine B assay; format: functional; conditions: NCI-H460, 48 h, read-out: Activity
# K562 = assay: Growth inhibition of human K562 cells after 48 hrs by sulforhodamine B assay; format: functional; conditions: K562, 48 h; for CC50: read-out: LC50 (the source's name)
# A549 = assay: Growth inhibition of human A549/ATCC cells assessed as cell growth at 10 uM after 48 hrs by sulforhodamine B assay; format: functional; conditions: A549, 48 h, read-out: Activity
# COLO 205 = assay: Growth inhibition of human COLO205 cells after 48 hrs by sulforhodamine B assay; format: functional; conditions: COLO 205, 48 h
# RXF 393 = assay: Growth inhibition of human RXF393 cells after 48 hrs by sulforhodamine B assay; format: functional; conditions: RXF 393, 48 h
# SK-MEL-2 = assay: Growth inhibition of human SK-MEL-2 cells after 48 hrs by sulforhodamine B assay; format: functional; conditions: SK-MEL-2, 48 h
# A498 = assay: Growth inhibition of human A498 cells assessed as cell growth at 10 uM after 48 hrs by sulforhodamine B assay; format: functional; conditions: A498, 48 h, read-out: Activity
# NCI-H522 = assay: Growth inhibition of human NCI-H522 cells assessed as cell growth at 10 uM after 48 hrs by sulforhodamine B assay; format: functional; conditions: NCI-H522, 48 h, read-out: Activity
# U-251 = assay: Growth inhibition of human U251 cells assessed as cell growth at 10 uM after 48 hrs by sulforhodamine B assay; format: functional; conditions: U-251, 48 h, read-out: Activity
# MOLT-4 = assay: Growth inhibition of human MOLT4 cells assessed as cell growth at 10 uM after 48 hrs by sulforhodamine B assay; format: functional; conditions: MOLT-4, 48 h, read-out: Activity
# HT-29 = assay: Growth inhibition of human HT-29 cells after 48 hrs by sulforhodamine B assay; format: functional; conditions: HT-29, 48 h; for CC50: read-out: LC50 (the source's name)
smiles,measurement,setting,value
COc1cc(-c2nn(-c3cccc(NC(=O)Nc4ccc(Cl)c(Cl)c4)c3)cc2-c2ccncc2)ccc1Cl,growth at 10 µM,KM12,1.3%
same,GI50,MDA-MB-231,698 nM
same,LC50,MDA-MB-231,12900 nM
same,TGI,MDA-MB-231,1920 nM
same,GI50,T47D [1],1420 nM
same,TGI,T47D [1],> 50000 nM
same,CC50,T47D [1],> 50000 nM
same,GI50,NCI-H23,1410 nM
same,LC50,NCI-H23,> 50000 nM
same,TGI,NCI-H23,5190 nM
same,growth at 10 µM,TK-10,10.9%
same,growth at 10 µM,BT-549 [2],6.23%
same,growth at 10 µM,T47D [3],2.98%
same,growth at 10 µM,OVCAR-4,19.8%
same,GI50,SNB-19,1720 nM
same,LC50 (concentration killing 50% of cells),SNB-19,> 50000 nM
same,TGI,SNB-19,> 50000 nM
same,growth at 10 µM,HOP-62,10.2%
same,growth at 10 µM,SK-OV-3,11.8%
same,GI50,SK-MEL-28,1430 nM
same,LC50,SK-MEL-28,> 50000 nM
same,TGI,SK-MEL-28,7320 nM
same,growth at 10 µM,MDA-MB-468,2.14%
same,growth at 10 µM,RPMI-8226,-11.6%
same,growth at 10 µM,SN12C,10.7%
same,growth at 10 µM,HCT-15,12.7%
same,growth at 10 µM,PC-3,-17.6%
same,growth at 10 µM,[4],2.84%
same,growth at 10 µM,SK-MEL-5,-80%
same,GI50,MDA-MB-435,938 nM
same,IC50,MDA-MB-435,940 nM
same,TGI,MDA-MB-435,2390 nM
same,CC50,MDA-MB-435; read-out: LC50 (the source's name),> 50000 nM
same,growth at 10 µM,[5],-6.95%
same,GI50,BT-549 [6],1680 nM
same,LC50 (50% lethal concentration),BT-549 [6],> 50000 nM
same,TGI,BT-549 [6],27600 nM
same,GI50,CAKI-1,1120 nM
same,TGI,CAKI-1,3700 nM
same,CC50,CAKI-1,> 50000 nM
same,growth at 10 µM,NCI-H460,2.32%
same,GI50,K562,890 nM
same,TGI,K562,> 50000 nM
same,CC50,K562,> 50000 nM
same,growth at 10 µM,A549,-5.88%
same,GI50,COLO 205,937 nM
same,LC50 (concentration killing 50% of cells),COLO 205,3140 nM
same,TGI,COLO 205,1720 nM
same,GI50,RXF 393,859 nM
same,LC50 (concentration killing 50% of cells),RXF 393,> 50000 nM
same,TGI,RXF 393,2440 nM
same,GI50,SK-MEL-2,1140 nM
same,LC50 (50% lethal concentration),SK-MEL-2,4850 nM
same,TGI,SK-MEL-2,2350 nM
same,growth at 10 µM,A498,-6.82%
same,growth at 10 µM,NCI-H522,-14.7%
same,growth at 10 µM,U-251,-6.02%
same,growth at 10 µM,MOLT-4,-11.1%
same,GI50,HT-29,1240 nM
same,TGI,HT-29,6460 nM
same,CC50,HT-29,> 50000 nM
COc1cc(-c2nn(-c3cccc(NC(=O)c4cccc(C(F)(F)F)c4)c3)cc2-c2ccncc2)ccc1Cl,growth at 10 µM,KM12,13.4%
same,GI50,MDA-MB-231,1240 nM
same,LC50,MDA-MB-231,> 50000 nM
same,TGI,MDA-MB-231,9960 nM
same,GI50,T47D [1],2550 nM
same,TGI,T47D [1],> 50000 nM
same,CC50,T47D [1],> 50000 nM
same,GI50,NCI-H23,1560 nM
same,LC50,NCI-H23,> 50000 nM
same,TGI,NCI-H23,32500 nM
same,growth at 10 µM,TK-10,8.08%
same,growth at 10 µM,BT-549 [2],26%
same,growth at 10 µM,T47D [3],29%
same,growth at 10 µM,OVCAR-4,46.5%
same,GI50,SNB-19,2460 nM
same,LC50 (concentration killing 50% of cells),SNB-19,> 50000 nM
same,TGI,SNB-19,> 50000 nM
same,growth at 10 µM,HOP-62,22.9%
same,growth at 10 µM,SK-OV-3,7.18%
same,GI50,SK-MEL-28,2490 nM
same,LC50,SK-MEL-28,> 50000 nM
same,TGI,SK-MEL-28,> 50000 nM
same,growth at 10 µM,MDA-MB-468,-19.4%
same,growth at 10 µM,RPMI-8226,-1.13%
same,growth at 10 µM,SN12C,34.4%
same,growth at 10 µM,HCT-15,12.8%
same,growth at 10 µM,PC-3,4.39%
same,growth at 10 µM,[4],0.91%
same,growth at 10 µM,SK-MEL-5,-33%
same,GI50,MDA-MB-435,705 nM
same,IC50,MDA-MB-435,710 nM
same,TGI,MDA-MB-435,1770 nM
same,growth at 10 µM,[5],-5.69%
same,GI50,BT-549 [6],2870 nM
same,LC50 (50% lethal concentration),BT-549 [6],> 50000 nM
same,TGI,BT-549 [6],46800 nM
same,GI50,CAKI-1,2010 nM
same,TGI,CAKI-1,> 50000 nM
same,CC50,CAKI-1,> 50000 nM
same,growth at 10 µM,NCI-H460,4.83%
same,GI50,K562,1400 nM
same,TGI,K562,> 50000 nM
same,CC50,K562,> 50000 nM
same,growth at 10 µM,A549,7.4%
same,GI50,COLO 205,1640 nM
same,LC50 (concentration killing 50% of cells),COLO 205,24800 nM
same,TGI,COLO 205,5170 nM
same,GI50,RXF 393,811 nM
same,LC50 (concentration killing 50% of cells),RXF 393,> 50000 nM
same,TGI,RXF 393,3150 nM
same,GI50,SK-MEL-2,1560 nM
same,LC50 (50% lethal concentration),SK-MEL-2,> 50000 nM
same,TGI,SK-MEL-2,> 50000 nM
same,growth at 10 µM,A498,-19%
same,growth at 10 µM,NCI-H522,-42.3%
same,growth at 10 µM,U-251,13.1%
same,growth at 10 µM,MOLT-4,8.63%
same,GI50,HT-29,1390 nM
same,TGI,HT-29,20100 nM
same,CC50,HT-29,> 50000 nM
